# Assay results published in patent US20060040884A1, “Antisense oligonucleotides directed to genes regulated by trapoxin-induced HDAC inhibition” (priority 2001, published 2006).
# Several values for one entry are separate records, joined by “and”; a condition that tells them apart may be missing. Equal values may be shown once. Marks after values point to notes of the source that are not given here. Square brackets hold non-standard residues; d marks the D form. Peptide text beside a SMILES is read from it. ξ: configuration not given here. Aoe(9ξ) = N[C@@H](CCCCCC(=O)C1CO1)C(=O)O; dPip = O=C(O)[C@H]1CCCCN1
# Test system: H1299 cells
# Test: Microarray expression profiling of TPX- vs DMSO-treated H1299 cells (Affymetrix HU6800 and Incyte UniGem V arrays)
# Type: cell-based, human
# Settings: 30 nM vs DMSO
# Description: Cell Culture and Drug Treatments. […] H1299 cells at 60 to 80% confluence are treated with 30 nM TPX dissolved in dimethyl sulphoxide for a final concentration of 0.1% Me2SO in cell culture medium or 0.1% Me2SO for 0, 6, 12, and 18 h.
# Incyte cDNA arrays. H1299 cells are treated with 30 nM TPX dissolved in Me2SO or Me2SO for 0, 6, 12 and 18 h. Final Me2SO concentrations were 0.1% in cell culture medium. Total RNA is extracted using TRIZOL reagent (Life Technologies, Rockville, Md.) and purified using RNAeasy reagents (Qiagen, Valencia Calif.). Poly (A)^+ RNA (mRNA) is prepared from total RNA using Oligotex columns (Qiagen, Valencia, Calif.) and the procedure is repeated twice to minimize contamination with ribosomal RNA. The mRNA concentrations are determined using RiboGreen RNA Quantitation kit (Molecular Probes, Eugene, Oreg.) and equal amounts of mRNA from each sample is used in labeling reactions that are performed by Synteni Division of Incyte Genomics, Inc. (Palo Alto, Calif.). Complementary DNAs are prepared by […] and labeled with Cy3-deoxyuridine triphosphate (Cy3) or Cy5-deoxyuridine triphosphate (Cy5) fluorescent nucleotides. cDNA samples from cells that are treated with Me2SO are labeled with Cy3 and the TPX-treated samples are labeled with Cy5. Replicates were labeled with reversed fluorescent labels to accommodate biases attributable to labeling. The Cy3 and Cy5 samples from each time point are combined and hybridized to UniGem […] arrays (Iyer, V. R., et al., (1999) Science 283, 83-87). This array contains cDNAs that represent approximately 7000 human genes.
# Affymetrix oligonucleotide arrays. Total RNA and Poly (A)^+ RNA is isolated from TPX or Me2SO-treated H1299 cells essentially as it was for Incyte cDNA arrays. Total RNA is isolated from p21^waf1-10 cells that are grown in the presence or in the absence of tetracycline for 6, 12 and 48 h. 1st strand cDNA synthesis is performed using Superscript Choice System (Life Technologies) and a T7prFB-t30 primer, 5′-AAACGACGGCACA […]-t30-3′ (SEQ ID NO 1). Biotinylated complementary […] is made using the T7 Megascript system (Ambion, Austin, Tex.), substituting NTP labeling-mix containing biotinylated CTP and UTP. The labeled, purified cDNA is fragmented into <50 bp pieces at 95° C. in MgCl2 buffer to-increase the efficiency of hybridization to 20-mer oligos on the arrays. These labeled fragments are hybridized to HU6800 arrays (Affymetrix, Santa Clara, Calif.) as described previously (Lockhart, D. J., et al., (1996) Nat. Biotechnol. 14, 1675-1680; Alon, U. et al., (1999) Proc. Natl. Acad. Sci. U.S.A. 96, 6745-6750). This array represents approximately 7000 human genes. Briefly, samples are hybridized for 16 h at 45° C. with constant rotation at 60 rpm. The arrays are washed and stained using an Affymetrix fluidics station. The stain included streptavidin-phycoerythrin (10 μg/ml; Molecular Probes, Eugene, Oreg.) and biotinylated goat anti-streptavidin (3 μg/ml; Vector Laboratories, Burlingame, Calif.).
# Imaging and Data Analysis. Affymetrix arrays are scanned with a HP argon-ion laser confocal microscope, with a 488 nm […] and detection at 570 nm. Affymetrix fold changes are calculated using GeneChip 3.3 software (Affymetrix). Incyte Pharmaceutical Inc. uses a laser confocal microscope to determine the fluorescence intensities from Incyte cDNA arrays. The fluorescent images (Cy3 and Cy5) from the Incyte cDNA arrays are normalized to total fluorescence from each channel for all genes for labeling efficiency differences and considered the normalized data is used for calculation of the gene expression ratios.
smiles,measurement,setting,value
"O=C(CCCCC[C@@H]1NC(=O)[C@H]2CCCCN2C(=O)[C@H](Cc2ccccc2)NC(=O)[C@H](Cc2ccccc2)NC1=O)C1CO1 (stereo partly drawn) [TPX, Trapoxin A] (cyclo(FF[dPip][Aoe(9ξ)]))","Fold change, AB011146 KIAA0574, similar to an RNA binding protein",6 h,NC (<2 fold change in expression level (NC))
same,"Fold change, AF012086 RAN-binding protein 2-like",6 h,NC (<2 fold change in expression level (NC))
same,"Fold change, AF052578 RAN [RNA processing]",6 h,NC (<2 fold change in expression level (NC))
same,"Fold change, AF052578 RAN [Small GTP-ases]",6 h,NC (<2 fold change in expression level (NC))
same,"Fold change, AF109161 p35srj [Stress]",6 h,NC (<2 fold change in expression level (NC))
same,"Fold change, AF109161 p35srj [Transformation and TKRs]",6 h,NC (<2 fold change in expression level (NC))
same,"Fold change, AL047358 Insulin-induced gene 1",6 h,2.2 fold and 2.8 fold
same,"Fold change, AL047358 Spermidine/spermine N1-acetyltransferase",6 h,NC (<2 fold change in expression level (NC))
same,"Fold change, AL720570 Hepatoma-derived growth factor",6 h,NC (<2 fold change in expression level (NC))
same,"Fold change, D00596 Thymidylate synthetase",6 h,NC (<2 fold change in expression level (NC))
same,"Fold change, D16105 Leukocyte receptor tyrosine kinase",6 h,NC (<2 fold change in expression level (NC))
same,"Fold change, D50920 KIAA0130, thyroid receptor interacting protein",6 h,NC (<2 fold change in expression level (NC))
same,"Fold change, D85429 Hsp 40",6 h,4.0^8 fold and 3.9^8 fold
same,"Fold change, J03909 γ-IFN-inducible, IP-30",6 h,3.9^5 fold and 3.9^2 fold
same,"Fold change, L03840 Fibroblast growth factor receptor",6 h,2.4* fold and 2.7* fold
same,"Fold change, L16991 Thymidylate kinase",6 h,NC (<2 fold change in expression level (NC))
same,"Fold change, L20010 Host cell factor",6 h,NC (<2 fold change in expression level (NC))
same,"Fold change, L32976 Mixed lineage kinase-3",6 h,NC (<2 fold change in expression level (NC))
same,"Fold change, M12174 RhoB",6 h,6.2^5 fold and 9.0^8 fold
same,"Fold change, M55153 Transglutaminase 2",6 h,NC (<2 fold change in expression level (NC))
same,"Fold change, M58286 TNF Receptor",6 h,NC (<2 fold change in expression level (NC))
same,"Fold change, M59828 Hsp 70",6 h,3.5 fold and 4.1 fold
same,"Fold change, M76125 Tyrosine kinase receptor (TKR) axl",6 h,NC (<2 fold change in expression level (NC))
same,"Fold change, M80244 Human E16",6 h,NC (<2 fold change in expression level (NC))
same,"Fold change, M80899 AHNAK nucleoprotein/desmoykin",6 h,NC (<2 fold change in expression level (NC))
same,"Fold change, M86406 Actinin",6 h,NC (<2 fold change in expression level (NC))
same,"Fold change, N33982 c-Yes-associated protein",6 h,NC (<2 fold change in expression level (NC))
same,"Fold change, NM006603 Stromal antigen 2",6 h,NC (<2 fold change in expression level (NC))
same,"Fold change, U03057 Actin-bundling protein",6 h,NC (<2 fold change in expression level (NC))
same,"Fold change, U09578 MAKAP kinase (3 pk)",6 h,NC (<2 fold change in expression level (NC))
same,"Fold change, U09579 p21waf1 (1st line)",6 h,6.1* fold and 6.6* fold
same,"Fold change, U09579 p21waf1 (2nd line)",6 h,2.3 fold and 3.3 fold
same,"Fold change, U09937 Upa receptor (UpaR) (1st line)",6 h,NC (<2 fold change in expression level (NC))
same,"Fold change, U14750 Connective tissue growth factor",6 h,3.1 fold and 3.6 fold
same,"Fold change, U15782 Cleavage stimulation factor 3",6 h,NC (<2 fold change in expression level (NC))
same,"Fold change, U25804 Caspase-4",6 h,NC (<2 fold change in expression level (NC))
same,"Fold change, U28749 HMGI-C (2nd line)",6 h,NC (<2 fold change in expression level (NC))
same,"Fold change, U28749 High mobility group phosphoprotein I-C (HMGI-C) (1st line)",6 h,NC (<2 fold change in expression level (NC))
same,"Fold change, U32519 GAP SH3 binding protein",6 h,5.7^8 fold and 5.8^8 fold
same,"Fold change, U35113 Metastasis-associated 1, MTA-1 [Metastasis and invasion]",6 h,NC (<2 fold change in expression level (NC))
same,"Fold change, U35113 Metastasis-associated protein 1 (MTA-1) [Chromatin remodeling]",6 h,NC (<2 fold change in expression level (NC))
same,"Fold change, U48795 Cathelicidin antimicrobial peptide",6 h,NC (<2 fold change in expression level (NC))
same,"Fold change, U56833 VBP-1",6 h,NC (<2 fold change in expression level (NC))
same,"Fold change, U77413 O-linked-N-acetylglucosamine transferase",6 h,NC (<2 fold change in expression level (NC))
same,"Fold change, U84214 Defender against cell death 1",6 h,NC (<2 fold change in expression level (NC))
same,"Fold change, X03473 Histone H1 (0) [Chromatin remodeling]",6 h,6.8^4 fold and 10.8^8 fold
same,"Fold change, X03473 Histone H1 (0) [Differentiation]",6 h,6.8^4 fold and 10.8^8 fold
same,"Fold change, X04429 Plasminogen activator inhibitor 1",6 h,NC (<2 fold change in expression level (NC))
same,"Fold change, X16396 NAD-dependent methylene teterahydrofolate dehydrogenase-methylenyltetrahydrofolate cyclohydrolase",6 h,NC (<2 fold change in expression level (NC))
same,"Fold change, X16665 Homeobox B2 (Hoxb2)",6 h,NC (<2 fold change in expression level (NC))
same,"Fold change, X37546 Inhibitor of apoptisis homolog B",6 h,NC (<2 fold change in expression level (NC))
same,"Fold change, X53586 Integrin α-6",6 h,NC (<2 fold change in expression level (NC))
same,"Fold change, X55740 5′-nucleotidase",6 h,NC (<2 fold change in expression level (NC))
same,"Fold change, X59798 Cyclin D1",6 h,NC (<2 fold change in expression level (NC))
same,"Fold change, X66029 TKR axl",6 h,NC (<2 fold change in expression level (NC))
same,"Fold change, X71874 MECL-1",6 h,NC (<2 fold change in expression level (NC))
same,"Fold change, X78687 G9 sialidase",6 h,3.0^8 fold and 3.4^8 fold
same,"Fold change, X89713 Death-associated protein-5",6 h,NC (<2 fold change in expression level (NC))
same,"Fold change, A1581499 Apoptosis inhibitor 2",12 h,NC (<2 fold change in expression level (NC))
same,"Fold change, AB011146 KIAA0574, similar to an RNA binding protein",12 h,2.7 fold
same,"Fold change, AF012086 RAN-binding protein 2-like",12 h,9.1 fold and 8.3 fold
same,"Fold change, AF052578 RAN [RNA processing]",12 h,NC (<2 fold change in expression level (NC))
same,"Fold change, AF052578 RAN [Small GTP-ases]",12 h,2.9 fold and 2.0 fold
same,"Fold change, AF109161 p35srj [Stress]",12 h,3.5 fold and 2.4 fold
same,"Fold change, AF109161 p35srj [Transformation and TKRs]",12 h,3.5 fold and 2.4 fold
same,"Fold change, AL047358 Insulin-induced gene 1",12 h,7.9 fold and 6.4 fold
same,"Fold change, AL047358 Spermidine/spermine N1-acetyltransferase",12 h,3.8 fold and 2.3 fold
same,"Fold change, AL720570 Hepatoma-derived growth factor",12 h,NC (<2 fold change in expression level (NC))
same,"Fold change, AW072424 5′-nucleotidase",12 h,−3.7 fold
same,"Fold change, D00596 Thymidylate synthetase",12 h,NC (<2 fold change in expression level (NC))
same,"Fold change, D16105 Leukocyte receptor tyrosine kinase",12 h,NC (<2 fold change in expression level (NC))
same,"Fold change, D50920 KIAA0130, thyroid receptor interacting protein",12 h,NC (<2 fold change in expression level (NC))
